Data reported in ChEMBL document CHEMBL1201862, “PubChem BioAssay data set” (2004).
Active and inactive are the calls of the source.

Key:
[1] = biological target: Luciferin 4-monooxygenase (Photinus pyralis, UniProt P08659); test: inhibition of purified Photinus pyralis luciferase – biochemical, luminescence, dose response (AID 1891)
[2] = Luminescence Cell-Based Dose Confirmation HTS to Identify Inhibitors of Platelet Dense Granule Release. [Related pubchem assays: 1663 (Primary HTS), 1678 (Summary of Project)]; assay type: functional
[3] = Fluorescence Cell-Based Dose Response to Identify Inhibitors of Thrombin Receptor-Activating Peptide SFLLRN-Mediated P-Selectin Induction on Platelets. [Related pubchem assays: 1663 (Primary HTS), 1889 (retest at dose ), 1891 (counterscreen), 1678 (Project Summary)]; assay type: functional
[4] = biological target: Lysine-specific demethylase 4C (Homo sapiens, UniProt Q9H3R0); test: inhibition of JMJD2C H3K9me3 demethylation – biochemical, DELFIA europium, cherry-picked samples, dose response (AID 488835); assay type: functional
Sequence of Lysine-specific demethylase 4C (Q9H3R0 whole entry): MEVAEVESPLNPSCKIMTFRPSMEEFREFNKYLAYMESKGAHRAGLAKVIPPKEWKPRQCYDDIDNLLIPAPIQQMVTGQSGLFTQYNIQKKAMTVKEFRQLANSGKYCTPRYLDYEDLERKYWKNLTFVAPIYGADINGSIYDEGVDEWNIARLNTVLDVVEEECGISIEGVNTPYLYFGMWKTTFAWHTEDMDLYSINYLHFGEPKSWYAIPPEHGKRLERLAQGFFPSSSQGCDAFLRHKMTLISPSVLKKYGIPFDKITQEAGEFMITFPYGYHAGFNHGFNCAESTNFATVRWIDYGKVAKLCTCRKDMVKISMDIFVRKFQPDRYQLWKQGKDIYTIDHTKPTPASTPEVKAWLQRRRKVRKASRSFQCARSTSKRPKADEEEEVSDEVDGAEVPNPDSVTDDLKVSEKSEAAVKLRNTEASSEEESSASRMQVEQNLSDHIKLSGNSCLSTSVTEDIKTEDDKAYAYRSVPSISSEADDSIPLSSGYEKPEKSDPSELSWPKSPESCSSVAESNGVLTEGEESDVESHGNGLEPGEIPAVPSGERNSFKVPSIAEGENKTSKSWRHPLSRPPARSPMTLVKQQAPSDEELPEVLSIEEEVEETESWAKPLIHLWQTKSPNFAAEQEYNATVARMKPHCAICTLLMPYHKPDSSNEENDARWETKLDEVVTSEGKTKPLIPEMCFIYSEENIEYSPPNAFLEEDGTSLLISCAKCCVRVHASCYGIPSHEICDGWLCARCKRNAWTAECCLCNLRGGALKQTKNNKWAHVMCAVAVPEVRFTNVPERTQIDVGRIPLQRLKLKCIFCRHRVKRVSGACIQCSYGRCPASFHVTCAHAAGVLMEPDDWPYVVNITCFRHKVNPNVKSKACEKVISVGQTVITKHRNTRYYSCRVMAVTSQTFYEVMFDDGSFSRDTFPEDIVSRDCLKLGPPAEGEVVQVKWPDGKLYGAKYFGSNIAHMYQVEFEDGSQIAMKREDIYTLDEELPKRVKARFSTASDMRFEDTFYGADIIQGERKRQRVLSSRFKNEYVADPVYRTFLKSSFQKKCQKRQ

[5] = biological target: CAAX prenyl protease 1 (Saccharomyces cerevisiae S288c, UniProt P47154); test: yeast CAAX protease Ste24 inhibition – biochemical, S. cerevisiae, plate reader, cherry-pick, dose response (AID 488815)
Sequence of CAAX prenyl protease 1 (P47154 whole entry): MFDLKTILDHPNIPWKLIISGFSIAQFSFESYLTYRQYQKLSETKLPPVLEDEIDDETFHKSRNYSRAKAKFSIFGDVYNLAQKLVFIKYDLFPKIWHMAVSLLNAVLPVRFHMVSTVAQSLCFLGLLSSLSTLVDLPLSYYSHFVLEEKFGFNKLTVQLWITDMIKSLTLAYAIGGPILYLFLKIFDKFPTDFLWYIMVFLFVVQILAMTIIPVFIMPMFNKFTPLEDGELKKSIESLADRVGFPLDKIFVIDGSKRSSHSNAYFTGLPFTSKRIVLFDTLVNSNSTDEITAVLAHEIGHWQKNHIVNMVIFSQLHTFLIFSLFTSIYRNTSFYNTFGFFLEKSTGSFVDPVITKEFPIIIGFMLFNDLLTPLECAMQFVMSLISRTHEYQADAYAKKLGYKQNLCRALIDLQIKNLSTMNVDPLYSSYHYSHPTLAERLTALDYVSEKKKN

[6] = biological target: T1, CAAX prenyl protease 2 (Homo sapiens, UniProt Q9Y256); test: inhibition of Ras-converting CAAX protease Rce1 – biochemical, yeast membranes, quenched-peptide fluorescence, cherry-pick, dose response (AID 588849)
T1 sequence (Q9Y256 whole entry): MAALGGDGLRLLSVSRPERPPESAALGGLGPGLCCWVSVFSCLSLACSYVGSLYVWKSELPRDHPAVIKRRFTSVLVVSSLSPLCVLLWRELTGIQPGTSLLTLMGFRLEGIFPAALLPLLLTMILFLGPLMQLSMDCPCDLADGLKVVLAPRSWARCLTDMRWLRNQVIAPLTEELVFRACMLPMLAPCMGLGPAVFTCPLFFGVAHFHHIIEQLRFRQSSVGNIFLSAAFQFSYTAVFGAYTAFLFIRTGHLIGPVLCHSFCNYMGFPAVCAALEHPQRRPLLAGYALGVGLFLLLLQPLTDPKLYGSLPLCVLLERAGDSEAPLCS

[7] = restored growth of temperature-sensitive Burl-1 yeast – whole organism, S. cerevisiae, Burl-1 ts mutant, luminescence, counter-screen for SUMOylation pathway inhibitor project, dose response (AID 463199); assay type: functional
[8] = biological target: T2, SUMO-activating enzyme (Homo sapiens, UniProt Q9UBT2); test: blockers of UBC9-mediated SUMO conjugation – biochemical, AlphaScreen, SUMOylation inhibitor project, confirmation (AID 2018); assay type: functional
T2 sequence (Q9UBE0 whole entry): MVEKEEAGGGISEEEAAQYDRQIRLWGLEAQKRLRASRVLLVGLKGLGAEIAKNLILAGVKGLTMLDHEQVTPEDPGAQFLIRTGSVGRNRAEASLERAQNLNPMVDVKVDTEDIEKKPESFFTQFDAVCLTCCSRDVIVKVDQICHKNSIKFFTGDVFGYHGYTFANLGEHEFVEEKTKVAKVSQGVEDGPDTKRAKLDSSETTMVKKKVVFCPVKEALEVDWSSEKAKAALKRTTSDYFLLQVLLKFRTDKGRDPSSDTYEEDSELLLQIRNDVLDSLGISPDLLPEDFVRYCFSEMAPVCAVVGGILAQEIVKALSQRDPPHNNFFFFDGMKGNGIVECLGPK
T2 sequence (Q9UBT2 whole entry): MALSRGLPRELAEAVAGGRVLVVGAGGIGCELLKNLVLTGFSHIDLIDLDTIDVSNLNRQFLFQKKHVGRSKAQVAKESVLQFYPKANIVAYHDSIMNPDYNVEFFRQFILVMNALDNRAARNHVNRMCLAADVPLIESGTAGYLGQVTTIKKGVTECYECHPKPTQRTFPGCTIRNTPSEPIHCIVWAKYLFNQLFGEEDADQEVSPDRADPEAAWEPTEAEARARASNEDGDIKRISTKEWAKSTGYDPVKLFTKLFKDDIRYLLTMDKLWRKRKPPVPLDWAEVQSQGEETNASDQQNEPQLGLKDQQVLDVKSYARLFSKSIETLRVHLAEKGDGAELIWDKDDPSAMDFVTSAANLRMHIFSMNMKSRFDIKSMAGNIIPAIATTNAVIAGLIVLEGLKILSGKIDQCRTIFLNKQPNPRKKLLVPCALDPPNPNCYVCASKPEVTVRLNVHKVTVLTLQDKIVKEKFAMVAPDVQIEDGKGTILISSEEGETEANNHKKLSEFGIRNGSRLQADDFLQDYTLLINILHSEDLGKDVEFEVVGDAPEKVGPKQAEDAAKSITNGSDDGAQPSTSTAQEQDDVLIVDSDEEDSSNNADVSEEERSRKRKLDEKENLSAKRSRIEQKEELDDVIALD

[9] = biological target: T2, SUMO-activating enzyme; test: blockers of SAE1/SAE2–UBC9 SUMO transfer – biochemical, HTRF, uHTS, primary screen (AID 2006); assay type: protein-complex assay
[10] = biological target: SUMO E1/E2 (Homo sapiens, UniProt P63279+Q9UBE0+Q9UBT2); test: SAR analysis of SUMOylation using HTRF in an in-Vitro dose response assay. [Related pubchem assays (depositor defined):AID2006, AID2011, AID2018, AID2069, AID2658]; assay type: functional
Sequence of SUMO E1/E2 (Q9UBE0 whole entry): as the sequence (Q9UBE0 whole entry) above
Sequence of SUMO E1/E2 (Q9UBT2 whole entry): as the sequence (Q9UBT2 whole entry) above
Sequence of SUMO E1/E2 (P63279 whole entry): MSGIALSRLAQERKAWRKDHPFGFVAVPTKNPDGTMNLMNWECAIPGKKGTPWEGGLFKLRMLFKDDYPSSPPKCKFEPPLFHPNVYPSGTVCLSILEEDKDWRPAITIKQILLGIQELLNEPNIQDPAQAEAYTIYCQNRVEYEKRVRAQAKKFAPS

[11] = biological target: Eukaryotic translation initiation factor 4E (Mus musculus, UniProt P63073); test: blockers of eIF4G binding by eIF4E – biochemical, TR-FRET, dose response (AID 855); assay type: functional;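 note: potency for disrupting eIF4E binding to eIF4GI seen as loss of FRET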
Sequence of Eukaryotic translation initiation factor 4E (P63073 whole entry): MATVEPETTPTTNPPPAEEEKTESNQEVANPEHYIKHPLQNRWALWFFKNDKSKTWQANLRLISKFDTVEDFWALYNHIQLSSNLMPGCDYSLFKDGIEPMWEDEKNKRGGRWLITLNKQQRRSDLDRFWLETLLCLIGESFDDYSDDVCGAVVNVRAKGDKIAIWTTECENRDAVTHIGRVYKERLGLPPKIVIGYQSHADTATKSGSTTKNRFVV

[12] = biological target: Hexokinase HKDC1 (Homo sapiens, UniProt Q2TB90); test: inhibition of HKDC1 glucose phosphorylation – biochemical, W721R variant, dose response (AID 504729); assay type: functional
Sequence of Hexokinase HKDC1 (Q2TB90 whole entry): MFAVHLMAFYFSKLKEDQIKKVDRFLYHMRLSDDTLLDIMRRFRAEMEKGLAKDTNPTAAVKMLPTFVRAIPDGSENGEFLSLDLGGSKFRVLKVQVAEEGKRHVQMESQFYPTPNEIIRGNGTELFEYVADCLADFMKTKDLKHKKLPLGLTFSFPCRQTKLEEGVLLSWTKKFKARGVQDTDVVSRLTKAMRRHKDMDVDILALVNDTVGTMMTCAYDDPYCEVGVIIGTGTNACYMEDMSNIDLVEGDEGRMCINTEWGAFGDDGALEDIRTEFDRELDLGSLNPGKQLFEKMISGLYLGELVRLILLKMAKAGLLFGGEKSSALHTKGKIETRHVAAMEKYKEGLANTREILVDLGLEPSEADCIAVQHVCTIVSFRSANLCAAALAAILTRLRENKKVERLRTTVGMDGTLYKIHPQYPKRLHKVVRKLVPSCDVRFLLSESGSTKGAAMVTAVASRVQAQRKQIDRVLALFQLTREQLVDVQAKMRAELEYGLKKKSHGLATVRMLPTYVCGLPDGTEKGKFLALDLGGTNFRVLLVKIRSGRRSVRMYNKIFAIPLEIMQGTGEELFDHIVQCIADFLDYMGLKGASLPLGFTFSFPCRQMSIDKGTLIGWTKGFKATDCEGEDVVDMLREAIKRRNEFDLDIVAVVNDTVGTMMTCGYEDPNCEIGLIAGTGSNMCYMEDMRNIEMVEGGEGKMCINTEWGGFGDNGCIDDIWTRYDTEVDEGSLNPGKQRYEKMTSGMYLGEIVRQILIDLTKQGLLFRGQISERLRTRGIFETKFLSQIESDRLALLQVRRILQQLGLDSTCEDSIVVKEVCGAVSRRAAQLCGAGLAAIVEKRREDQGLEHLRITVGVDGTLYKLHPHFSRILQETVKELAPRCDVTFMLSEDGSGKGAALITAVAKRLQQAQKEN

[13] = biological target: T3, Replicative DNA helicase DnaB (Mycobacterium tuberculosis, UniProt P9WMR3); test: DnaB intein splicing inhibitors, dose response, biochemical, cell-free fluorescence (AID 449749); assay type: functional
T3 sequence (P9WMR3 whole entry): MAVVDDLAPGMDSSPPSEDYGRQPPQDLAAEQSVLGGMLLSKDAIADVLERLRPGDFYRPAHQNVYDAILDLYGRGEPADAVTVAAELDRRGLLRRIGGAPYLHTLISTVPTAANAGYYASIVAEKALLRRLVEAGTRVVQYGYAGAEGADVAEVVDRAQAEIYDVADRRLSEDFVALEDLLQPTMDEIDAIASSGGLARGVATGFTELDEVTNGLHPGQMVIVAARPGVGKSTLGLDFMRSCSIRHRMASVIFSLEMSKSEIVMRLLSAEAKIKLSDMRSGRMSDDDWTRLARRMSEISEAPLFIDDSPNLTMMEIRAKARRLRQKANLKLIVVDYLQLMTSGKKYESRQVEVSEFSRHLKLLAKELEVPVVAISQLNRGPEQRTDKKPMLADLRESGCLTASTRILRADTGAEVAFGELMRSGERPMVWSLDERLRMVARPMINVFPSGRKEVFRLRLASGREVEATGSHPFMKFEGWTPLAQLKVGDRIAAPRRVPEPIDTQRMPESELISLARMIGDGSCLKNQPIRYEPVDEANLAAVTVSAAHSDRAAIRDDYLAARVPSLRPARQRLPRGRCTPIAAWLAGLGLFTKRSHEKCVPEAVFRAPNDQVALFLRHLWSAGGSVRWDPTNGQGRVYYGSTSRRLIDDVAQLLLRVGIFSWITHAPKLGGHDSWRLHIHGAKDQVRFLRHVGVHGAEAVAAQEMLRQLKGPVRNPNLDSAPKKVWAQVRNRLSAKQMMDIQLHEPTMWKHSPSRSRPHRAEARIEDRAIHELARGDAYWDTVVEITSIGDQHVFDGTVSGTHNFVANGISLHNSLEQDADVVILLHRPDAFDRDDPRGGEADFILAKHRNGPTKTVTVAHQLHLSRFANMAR

[14] = biological target: T4, Protein RecA (Mycobacterium tuberculosis, UniProt P9WHJ3); test: Fluorescence Cell-Free Homogeneous Dose Retest to Identify Inhibitors of RecA-Intein Splicing Activity. [Related pubchem assays (depositor defined):AID2097, AID2223, AID489010, AID492950]; assay type: functional
T4 sequence (P9WHJ3 whole entry): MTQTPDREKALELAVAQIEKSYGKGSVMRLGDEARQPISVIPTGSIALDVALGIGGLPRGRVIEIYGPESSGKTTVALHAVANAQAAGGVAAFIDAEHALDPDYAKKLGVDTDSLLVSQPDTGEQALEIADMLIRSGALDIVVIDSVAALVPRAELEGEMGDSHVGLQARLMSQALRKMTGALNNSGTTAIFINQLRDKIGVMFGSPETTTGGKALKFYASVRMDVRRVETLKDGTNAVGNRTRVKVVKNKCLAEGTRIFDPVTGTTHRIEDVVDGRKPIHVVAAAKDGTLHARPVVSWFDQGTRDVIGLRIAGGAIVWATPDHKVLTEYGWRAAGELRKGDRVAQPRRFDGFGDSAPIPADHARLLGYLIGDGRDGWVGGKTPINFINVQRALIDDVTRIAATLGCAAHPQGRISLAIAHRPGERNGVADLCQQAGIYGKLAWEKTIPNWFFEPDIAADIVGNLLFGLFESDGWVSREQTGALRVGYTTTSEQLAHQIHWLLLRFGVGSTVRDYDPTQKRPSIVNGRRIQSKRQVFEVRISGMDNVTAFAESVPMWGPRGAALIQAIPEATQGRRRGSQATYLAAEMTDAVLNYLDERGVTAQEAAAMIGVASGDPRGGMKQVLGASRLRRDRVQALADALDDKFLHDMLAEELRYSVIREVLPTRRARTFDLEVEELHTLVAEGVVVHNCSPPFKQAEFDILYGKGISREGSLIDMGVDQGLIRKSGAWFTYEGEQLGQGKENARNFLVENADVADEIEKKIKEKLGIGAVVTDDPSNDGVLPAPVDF

[15] = biological target: T5, Mannose-6-phosphate isomerase (Homo sapiens, UniProt P34949); test: phosphomannose isomerase inhibition – biochemical, fluorescence intensity, confirmation (AID 1535)
T5 sequence (P34949 whole entry): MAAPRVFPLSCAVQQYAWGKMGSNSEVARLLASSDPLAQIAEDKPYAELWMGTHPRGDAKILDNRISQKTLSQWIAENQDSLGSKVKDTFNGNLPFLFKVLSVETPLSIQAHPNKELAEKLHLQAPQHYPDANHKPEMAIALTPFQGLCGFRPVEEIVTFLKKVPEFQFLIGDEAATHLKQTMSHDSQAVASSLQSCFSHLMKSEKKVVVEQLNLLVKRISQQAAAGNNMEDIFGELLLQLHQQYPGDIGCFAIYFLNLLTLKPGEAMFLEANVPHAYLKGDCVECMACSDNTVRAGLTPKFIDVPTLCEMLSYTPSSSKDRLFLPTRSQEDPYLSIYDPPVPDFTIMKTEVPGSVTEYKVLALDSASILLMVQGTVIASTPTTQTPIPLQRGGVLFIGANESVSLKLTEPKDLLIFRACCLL

[16] = biological target: Phosphomannomutase 2 (Homo sapiens, UniProt O15305); test: Counter screen SAR assay for PMM2 inhibitors via a fluorescence intensity assay. [Related pubchem assays (depositor defined):AID1545, AID1574]
Sequence of Phosphomannomutase 2 (O15305 whole entry): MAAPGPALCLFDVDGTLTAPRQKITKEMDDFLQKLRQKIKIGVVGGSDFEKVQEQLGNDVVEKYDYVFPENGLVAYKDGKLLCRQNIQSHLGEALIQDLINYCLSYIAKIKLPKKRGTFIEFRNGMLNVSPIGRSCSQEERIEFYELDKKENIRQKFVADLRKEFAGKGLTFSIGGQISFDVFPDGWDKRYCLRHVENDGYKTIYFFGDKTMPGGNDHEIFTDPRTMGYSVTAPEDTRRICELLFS

[17] = Luminescence Cell-Based/Microorganism Confirmation at Dose of Inhibitors of Trypanosoma cruzi Infection. [Related pubchem assays: 1885, 1968 ]; assay type: functional
[18] = Trypanosoma cruzi growth suppression in host cells – NIH3T3 host cells, beta-gal luminescence, confirmation (AID 2044); assay type: functional, cell-based;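 note: intracellular parasites grown in NIH/3T3 mouse fibroblasts as host cells; luminescent beta-galactosidase reporter signal from transgenic T. cruzi replicating inside host cells; inhibitors lower the luminescence signal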
[19] = Luminescence Cell-Based Secondary HTS screen to identify cytotoxic compounds of NIH3T3 cells. [Related pubchem assays: 1885, 1968 ]; assay type: functional
[20] = NIH3T3 cell viability loss – ATP luminescence, mouse fibroblasts, counter-screen, dose response (AID 2010); assay type: functional, cell-based;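 note: cells exposed to compound for about 90 hours before reading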
[21] = T. cruzi infection blockers in NIH3T3 cells – beta-gal luminescence, NIH3T3 host cells, confirmation (AID 2630); assay type: functional, cell-based; details: Mus musculus

Sequence of Luciferin 4-monooxygenase (P08659 whole entry): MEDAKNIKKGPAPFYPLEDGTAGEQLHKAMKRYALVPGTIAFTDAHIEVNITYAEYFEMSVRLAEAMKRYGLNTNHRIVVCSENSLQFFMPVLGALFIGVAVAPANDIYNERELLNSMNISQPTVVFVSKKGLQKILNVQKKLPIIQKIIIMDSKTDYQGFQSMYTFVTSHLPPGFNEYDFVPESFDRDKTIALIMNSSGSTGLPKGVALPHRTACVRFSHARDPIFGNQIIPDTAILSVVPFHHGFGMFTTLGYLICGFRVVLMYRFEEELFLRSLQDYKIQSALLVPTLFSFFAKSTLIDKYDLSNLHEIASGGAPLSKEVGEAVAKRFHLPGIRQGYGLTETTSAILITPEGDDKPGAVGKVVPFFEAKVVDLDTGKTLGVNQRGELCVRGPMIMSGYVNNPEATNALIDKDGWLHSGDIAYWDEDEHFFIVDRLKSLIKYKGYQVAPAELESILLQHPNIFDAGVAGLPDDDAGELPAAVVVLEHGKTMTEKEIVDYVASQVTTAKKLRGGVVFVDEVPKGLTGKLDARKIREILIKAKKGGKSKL

COc1ccc(/C=N/N(C)c2cc(=O)n(C)c(=O)[nH]2)cc1OC
EC50 [1]: > 112 µM (not active) | EC50 [2]: 0.693 µM (active) | EC50 [3]: < 1 µM (active) | AC50 [4]: 17.8 µM (active)

CCOc1cccc(-c2nn(-c3ccccc3)cc2/C=C(/C#N)C(=O)NCCCn2ccnc2)c1
AC50 [5]: 7.93 µM (active) | AC50 [6]: 22.3 µM (active)

O=C1CC(c2ccccc2)C(=O)N1c1cccc(O)c1 (stereo unspecified)
AC50 [7]: 53.6 µM (active)

O=C(/C=C/c1cccs1)Nc1scc(-c2ccccc2)c1C(=O)O
IC50 [8]: 2.74 µM (active) | IC50 [9]: 9.84 µM (active) | IC50 [10]: 6.11 µM (active) | IC50 [11]: 5.76 µM (active) | IC50 [12]: 7 µM (active) | AC50 [13]: 23.3 µM (active) | EC50 [14]: 10.6 µM (active)

Cc1cccc(/N=c2\ssnc2Cl)c1
IC50 [15]: > 100 µM (inactive) | IC50 [16]: > 100 µM (inactive)

CC(C)Oc1cccc(C(=O)C2CCCN(Cc3cnc(N4CCCC4)s3)C2)c1 (stereo unspecified)
EC50 [17]: 0.606 µM (active) | EC50 [18]: 0.14 µM (active) | EC50 [19]: 63.8 µM (active) | EC50 [20]: > 60 µM (not active) | EC50 [21]: 0.607 µM (active)
